Test results as given in paper PMC9865645, “The Impact of N^ε-Acryloyllysine Piperazides on the Conformational Dynamics of Transglutaminase 2” (International Journal of Molecular Sciences, 2023).

Target: T1, in-house produced N-terminally Twin-Strep-tagged hTGase 2 (Homo sapiens, UniProt P21980)
T1 construct: thrombin cleavage site (N); made in house; host or cells: E. coli BL21(DE3)
T1 sequence (P21980 1-687): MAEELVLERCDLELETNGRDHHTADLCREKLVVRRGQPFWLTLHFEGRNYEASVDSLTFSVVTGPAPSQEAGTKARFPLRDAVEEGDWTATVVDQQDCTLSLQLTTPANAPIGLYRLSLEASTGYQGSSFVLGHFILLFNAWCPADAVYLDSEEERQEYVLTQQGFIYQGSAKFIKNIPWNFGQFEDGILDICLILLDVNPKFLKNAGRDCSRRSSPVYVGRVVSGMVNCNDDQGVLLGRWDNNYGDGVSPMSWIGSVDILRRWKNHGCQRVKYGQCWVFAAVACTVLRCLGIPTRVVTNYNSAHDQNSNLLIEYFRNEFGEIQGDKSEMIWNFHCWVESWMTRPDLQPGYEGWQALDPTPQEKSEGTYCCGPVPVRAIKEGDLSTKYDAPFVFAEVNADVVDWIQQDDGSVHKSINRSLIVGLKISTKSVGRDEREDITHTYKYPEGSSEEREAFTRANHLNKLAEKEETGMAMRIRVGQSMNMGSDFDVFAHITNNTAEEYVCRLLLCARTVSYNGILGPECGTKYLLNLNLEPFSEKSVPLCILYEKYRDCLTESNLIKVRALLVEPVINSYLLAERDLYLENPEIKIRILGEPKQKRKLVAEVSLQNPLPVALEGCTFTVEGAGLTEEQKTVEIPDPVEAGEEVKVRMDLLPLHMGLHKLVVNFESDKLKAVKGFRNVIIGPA
Experiment: fluorescence anisotropy (FA)-based transamidase activity assay, in-house Twin-Strep-tagged hTGase 2
Type: biochemical
Text: The gene of hTGase 2 (Uniprot ID: P21980) with an N-terminal thrombin cleavage site was cloned into the pPSG-IBA105 vector containing the sequence for an N-terminal Twin-Strep-tag (IBA Lifesciences GmbH, Göttingen, Germany) to obtain the final plasmid pPSG-IBA105/TCS-hTGase 2. The plasmid construct was verified by DNA sequencing (Eurofins Genomics Germany GmbH) and then transformed into E. coli BL21(DE3) by the heat–shock method. hTGase 2-expressing E. coli cells were lysed by lysozyme treatment, and hTGase 2 was purified by affinity chromatography on an ÄKTA purifier UPC 10 FPLC equipped with a Strep-Tactin XT cartridge (GE Healthcare Europe GmbH, Freiburg, Germany). Identity and purity of self-produced hTGase 2 were verified by SDS-PAGE and Western Blot analysis, respectively. Protein concentration was determined according to Bradford. More detailed descriptions of the generation and characterization of the final plasmid construct pPSG-IBA105/TCS-hTGase 2 and the expression, purification, and characterization of the self-produced hTGase 2 protein will be published elsewhere (manuscript in preparation).
For the analysis of inhibitor 1 on self-produced hTGase 2, 2 µg/mL of the enzyme was used to guarantee comparability with the value reported by Wodtke et al., whereas all other experiments were performed with 5 µg/mL of either commercial or self-produced hTGase 2 (corresponding to 64.1 and 61.6 nM, respectively, when assuming 100% active protein). Parallel and perpendicular fluorescence intensities were measured over 1190 s in 35 s intervals (1) or over 1776 s in 48 s intervals (2, 3) and used to calculate the FA. Data of FA for the first 875 s (1) or 384 s (2, 3) were analyzed by linear regression, with slopes corresponding to enzymatic rates. Rates in the presence of inhibitor were normalized by dividing them by the respective rate in the absence of inhibitor, and normalized rates were analyzed according to Equation (S29) in Supplementary Materials to calculate values of IC50. Data analysis was performed with Microsoft Excel (Microsoft Office Professional Plus 2016, Microsoft® Corporation, USA) and GraphPad Prism version 5.03 or version 6.07 for Windows (GraphPad Software, La Jolla, CA, USA).

IC50 (5 min pre-incubation of enzyme and inhibitor, mean (SEM) of three experiments): 116 nM
IC50 (30 min pre-incubation, hTGase 2 (in-house) 61.6 nM, mean (SEM)): 35.2 nM
Compound: C=CC(=O)NCCCC[C@H](NC(=O)Cc1ccccc1I)C(=O)N1CCN(c2ccc([N+](=O)[O-])nc2)CC1 [Compound 2, N^α-(2-Iodophenylacetyl)-N^ε-acryloyl-L-lysin-4-(2-nitropyridin-5-yl)piperazide]
